Experiments:
algae = settings: target protein lacking in algae; reference (6); cited from earlier work
barnacle cyprid larvae = assay: Settling experiments with barnacle cyprid larvae (Example 1); assay type: in vivo; settings: for Dead (%) / Free swimming (%) / Settled (%): counted after one week
Experimental: Barnacle cyprid larvae were incubated in filtered sea water with and without the tested substance.
(§1) Settling experiments were performed in order to evaluate the substances effect on settling rate of cyprid larvae. The barnacle cyprid larvae are reared in the laboratory. Approximately 20 cyprids were incubated in seawater in plastic hydrophobic Petri-dishes. Substances subjected for testing were added in different concentration and compared with controls. After one week the amount of settled, frees-swimming and dead larvae in the Petri dishes were counted.

Barnacle = assay: Cyprid settling rate assay, single compounds and combinations (Example 2); assay type: in vivo; settings: single substance
Experimental: as §1
(§2) Catemine 3 is combined with an effective anti-algae compound according to the invention, such as dichlofluanid (table 3), SeaNine™ (table 4), Irgarol™ (table 5) and Diuron™ (table 6). All the different brands are tested in combination with Catemine 3 for efficacy against both barnacles and algae with the two compounds together or separately. The assays that are be used are the cyprid settling rate assay and the algae germination test.

Enteromorpha = assay: Algae spore germination test, Enteromorpha; assay type: in vivo; settings: single substance
Experimental: The efficacy of algicides is usually tested by a spore germination test. Algae are collected from the field and grown in the laboratory. After induced sporulation the spores are added to test vials, with the test compound dissolved in pasteurized deep sea water, where they are allowed to settle in darkness for a couple of hours (2-3 h) to give an even distribution of settled spores in the vials. The water with test compound is then removed and culture medium is added. The spores are left to germinate under fluorescent lamps (50 μMm-2s-1 (PAR)), 16 h light, 8 h darkness, for 7 days in a culture medium, which was changed once a day.
as §2

Ulva = assay: Algae spore germination test, Ulva; assay type: in vivo; settings: single substance
Experimental: The efficacy of algicides is usually tested by a spore germination test. Algae are collected from the field and grown in the laboratory. […] The water with test compound is then removed and culture medium is added. The spores are left to germinate under fluorescent lamps (50 μMm-2s-1 (PAR)), 16 h light, 8 h darkness, for 7 days in a culture medium, which was changed once a day. […]

Structure (SMILES)	Dead (%) (barnacle cyprid larvae; 100 pM in seawater)	Free swimming (%) (barnacle cyprid larvae; 100 pM in seawater)	Settled (%) (barnacle cyprid larvae; 100 pM in seawater)	Dead (%) (barnacle cyprid larvae; 1 nM in seawater)	Free swimming (%) (barnacle cyprid larvae; 1 nM in seawater)	Settled (%) (barnacle cyprid larvae; 1 nM in seawater)	Dead (%) (barnacle cyprid larvae; 10 nM in seawater)	Free swimming (%) (barnacle cyprid larvae; 10 nM in seawater)	Settled (%) (barnacle cyprid larvae; 10 nM in seawater)	Dead (%) (barnacle cyprid larvae; 100 nM in seawater)	Free swimming (%) (barnacle cyprid larvae; 100 nM in seawater)	Settled (%) (barnacle cyprid larvae; 100 nM in seawater)	Dead (%) (barnacle cyprid larvae; 1 μM in seawater)	Free swimming (%) (barnacle cyprid larvae; 1 μM in seawater)	Settled (%) (barnacle cyprid larvae; 1 μM in seawater)	Barnacle biofouling (% settlement) (Barnacle; 0.1 nM) [%]	Barnacle biofouling (% settlement) (Barnacle; 1 nM) [%]	Barnacle biofouling (% settlement) (Barnacle; 10 nM) [%]	Barnacle biofouling (% settlement) (Barnacle; 100 nM) [%]	Enteromorpha biofouling (% survival) (Enteromorpha; 0.1 nM) [%]	also measured
Cc1cccc(C(C)c2c[nH]cn2)c1C (racemic) [Catemine 1, (+/−)-4-[1-(2,3-dimethylphenyl)ethyl]-1H-imidazole]	0	48	52	0	98	2	0	100	0	0	100	0	0	100	0						Effect on algal growth (algae): no effect of algal growth
NC1=N[C@]2(CCc3cccc(Cl)c3C2)CO1 [Catemine 3, (S)-spiro[(1-oxa-2-amino-3-azacyclopent-2-ene)-4,29-(89-chloro-19,29,39,49 tetrahydronaphthalene)]]	5	93	2	3	97	0	0	95	3	0	100	0	0	100	0	10	0	0	0	100	Enteromorpha biofouling (% survival) (Enteromorpha; 1 nM): 100%; Enteromorpha biofouling (% survival) (Enteromorpha; 10 nM): 100%; Enteromorpha biofouling (% survival) (Enteromorpha; 100 nM): 100%; Ulva biofouling (% survival) (Ulva; 0.1 nM): 100%; Ulva biofouling (% survival) (Ulva; 1 nM): 100%; Ulva biofouling (% survival) (Ulva; 10 nM): 100%; Ulva biofouling (% survival) (Ulva; 100 nM): 100%; Dead (%) (barnacle cyprid larvae; 10 pM in seawater): 0%; Free swimming (%) (barnacle cyprid larvae; 10 pM in seawater): 96%; Settled (%) (barnacle cyprid larvae; 10 pM in seawater): 4%; Dead (%) (barnacle cyprid larvae; 10 μM in seawater): 2%; Free swimming (%) (barnacle cyprid larvae; 10 μM in seawater): 98%; Settled (%) (barnacle cyprid larvae; 10 μM in seawater): 0%; Dead (%) (barnacle cyprid larvae; 100 μM in seawater): 100%; Free swimming (%) (barnacle cyprid larvae; 100 μM in seawater): 0%; Settled (%) (barnacle cyprid larvae; 100 μM in seawater): 0%; Decrease in concentration needed for settlement inhibition compared to Catemine 1 (barnacle cyprid larvae; compared to Catemine 1): 100-fold decrease in concentration needed for settlement inhibition.; Potency comparison of antisettling activity (barnacle cyprid larvae; comparison of Tables 1 and 2): more potent than Catemine 1
CN(C)S(=O)(=O)N(SC(F)(Cl)Cl)c1ccccc1 [Dichlofluanid, N′-dimethyl-N-phenylsulphamide]																					Barnacle biofouling (% settlement) (Barnacle; 0.1 μg/ml): 100%; Barnacle biofouling (% settlement) (Barnacle; 1 μg/ml): 50%; Barnacle biofouling (% settlement) (Barnacle; 10 μg/ml): 25%; Barnacle biofouling (% settlement) (Barnacle; 100 μg/ml): 0%; Ulva biofouling (% survival) (Ulva; 0.1 μg/ml): 100%; Ulva biofouling (% survival) (Ulva; 1 μg/ml): 90%; Ulva biofouling (% survival) (Ulva; 10 μg/ml): 10%; Ulva biofouling (% survival) (Ulva; 100 μg/ml): 0%
CN(C)C(=O)Nc1ccc(Cl)c(Cl)c1 [Diuron, 3-(3,4-dichlorophenyl)1,1-dimethylurea]																					Barnacle biofouling (% settlement) (Barnacle; 0.1 μM): 100%; Barnacle biofouling (% settlement) (Barnacle; 1 μM): 100%; Barnacle biofouling (% settlement) (Barnacle; 10 μM): 100%; Barnacle biofouling (% settlement) (Barnacle; 100 μM): 100%; Ulva biofouling (% survival) (Ulva; 0.1 μM): 100%; Ulva biofouling (% survival) (Ulva; 1 μM): 90%; Ulva biofouling (% survival) (Ulva; 10 μM): 50%; Ulva biofouling (% survival) (Ulva; 100 μM): 0%
CSc1nc(NC2CC2)nc(NC(C)(C)C)n1 [Irgarol, 2-methylthio-4-tert-butylamino-6-cyclopropylamino-s-triazine]																100	100	100	100	100	Enteromorpha biofouling (% survival) (Enteromorpha; 1 nM): 100%; Enteromorpha biofouling (% survival) (Enteromorpha; 10 nM): 50%; Enteromorpha biofouling (% survival) (Enteromorpha; 100 nM): 0%
CCCCCCCCn1sc(Cl)c(Cl)c1=O [SeaNine, 4,5-dichloro-2-n-octyl-3(2H)-isothiazolone]																100	50	10	0		Ulva biofouling (% survival) (Ulva; 0.1 nM): 100%; Ulva biofouling (% survival) (Ulva; 1 nM): 50%; Ulva biofouling (% survival) (Ulva; 10 nM): 10%; Ulva biofouling (% survival) (Ulva; 100 nM): 0%

From patent US20060189686A1, “Use of a combination of substances to prevent biofouling organisms” (priority 2005, published 2006)
